Data: ChEMBL document CHEMBL4765365, “Design, synthesis and antitumour evaluation of pyrrolo[1,2-f]-phenanthridine and dibenzo[f,h]pyrrolo[1,2-b]isoquinoline derivatives” (Eur J Med Chem, 2020)
pIC50: −log10 of the molar value. The source made the active and inactive calls. No cut-off for these calls is given here.

Tests used:
[1] = Cytotoxicity against human PacaS1 cells assessed as reduction in cell viability incubated for 72 hrs by XTT assay; format: functional, cell-based; conditions: PacaS1, 72 h
HCT-116 = experiment: Cytotoxicity against human HCT-116 cells assessed as reduction in cell viability incubated for 72 hrs by XTT assay; format: functional, cell-based; conditions: HCT-116, 72 h
CCRF-CEM = experiment: Cytotoxicity against human CCRF-CEM cells assessed as reduction in cell viability incubated for 72 hrs by XTT assay; format: functional, cell-based
NCI-H1650 = experiment: Cytotoxicity against human NCI-H1650 cells assessed as reduction in cell viability incubated for 72 hrs by XTT assay; format: functional, cell-based; conditions: NCI-H1650, 72 h
CEM-VLB = experiment: Cytotoxicity against human CEM-VLB cells assessed as reduction in cell viability incubated for 72 hrs by XTT assay; format: functional, cell-based
NCI-H460 = experiment: Cytotoxicity against human NCI-H460 cells assessed as reduction in cell viability incubated for 72 hrs by XTT assay; format: functional, cell-based; conditions: NCI-H460, 72 h
dsDNA = experiment: Induction of pBR322 DNA interstand crosslink at 1 to 20 uM incubated for 2 hrs by agarose gel electrophoresis assay; conditions: dose 1-20 µM

Compound	pIC50 [1]	pIC50 (HCT-116)	pIC50 (CCRF-CEM)	pIC50 (NCI-H1650)	pIC50 (CEM-VLB)	pIC50 (NCI-H460)	Activity (dsDNA)
CC(C)NC(=O)OCc1c(COC(=O)NC(C)C)c2c3ccccc3c3ccccc3n2c1-c1ccccc1	4.86	4.79	5.50	4.79	5.35	4.83	–
OCc1c(CO)c2c3ccccc3c3ccccc3n2c1-c1ccccc1	4.44	4.13	5.01	4.41	4.96	4.43	–
CCc1c(COC(=O)NC(C)C)c(COC(=O)NC(C)C)c2c3ccccc3c3ccccc3n12	5.34	4.79	5.72	4.99	5.81	5.30	–
CC(C)NC(=O)OCc1cn2c3ccccc3c3ccccc3c2c1COC(=O)NC(C)C	4.82	5.64	5.76	5.02	5.66	5.14	–
OCc1c(CO)c(-c2ccc(F)cc2)n2c1Cc1c(c3ccccc3c3ccccc13)C2	–	–	5.19	–	5.21	–	–
CCNC(=O)OCc1cn2c3ccccc3c3ccccc3c2c1COC(=O)NCC	5.36	5.74	5.89	5.24	5.91	5.37	–
CCc1c(CO)c(CO)c2n1Cc1c(c3ccccc3c3ccccc13)C2	5.58	5.57	5.86	5.62	5.97	5.88	Active
CC(C)NC(=O)OCc1c(COC(=O)NC(C)C)c2c3ccccc3c3ccccc3n2c1-c1ccc(F)cc1	–	–	5.39	–	5.50	–	–
CCNC(=O)OCc1c(COC(=O)NCC)c2c3ccccc3c3ccccc3n2c1CC	5.30	5.07	5.72	4.99	5.77	5.04	–
Cc1c(COC(=O)NC(C)C)c(COC(=O)NC(C)C)c2c3ccccc3c3ccccc3n12	5.74	5.67	6.46	5.29	6.47	5.92	–
OCc1c(CO)c2c3ccccc3c3ccccc3n2c1-c1ccc(F)cc1	–	–	5.09	–	5.19	–	–
CCNC(=O)OCc1c(COC(=O)NCC)c2c3ccccc3c3ccccc3n2c1-c1ccc(OC)cc1	–	–	5.52	–	5.55	–	–
CCNC(=O)OCc1c(COC(=O)NCC)c2c3ccccc3c3ccccc3n2c1-c1ccc(F)cc1	–	–	5.47	–	5.47	–	–
COc1ccc(-c2c(COC(=O)NC(C)C)c(COC(=O)NC(C)C)c3c4ccccc4c4ccccc4n23)cc1	–	–	5.66	–	5.56	–	–
Cc1c(CO)c(CO)c2c3ccccc3c3ccccc3n12	5.46	5.73	6.04	5.35	6.26	5.54	Active
CCc1c(CO)c(CO)c2c3ccccc3c3ccccc3n12	5.21	4.94	5.13	4.87	5.54	5.02	–
CCNC(=O)OCc1c(COC(=O)NCC)c2c3ccccc3c3ccccc3n2c1-c1ccccc1	4.95	4.68	5.39	4.74	5.61	5.04	–
Cc1c(CO)c(CO)c2n1Cc1c(c3ccccc3c3ccccc13)C2	5.74	5.80	6.44	5.57	6.47	6.74	Active
COc1ccc(-c2c(CO)c(CO)c3n2Cc2c(c4ccccc4c4ccccc24)C3)cc1	–	–	5.52	–	5.55	–	–
CC[C@]1(O)C[C@@H]2CN(CCc3c([nH]c4ccccc34)[C@@](C(=O)OC)(c3cc4c(cc3OC)N(C)[C@H]3[C@@](O)(C(=O)OC)[C@H](OC(C)=O)[C@]5(CC)C=CCN6CC[C@]43[C@@H]65)C2)C1 [VINBLASTINE]	–	–	8.85	–	6.41	–	–
COc1ccc(-c2c(CO)c(CO)c3c4ccccc4c4ccccc4n23)cc1	–	–	5.20	–	5.32	–	–
OCc1c(CO)c(-c2ccccc2)n2c1Cc1c(c3ccccc3c3ccccc13)C2	5.35	5.22	5.49	5.10	5.44	5.63	–
CCNC(=O)OCc1c(COC(=O)NCC)c2c3ccccc3c3ccccc3n2c1C	5.65	5.68	6.43	5.35	6.43	5.92	–
